Measurements as given in US9969694B2, “N-(arylalkyl)-N′-pyrazolyl-urea, thiourea, guanidine and cyanoguanidine compounds as TrkA kinase inhibitors” (Array BioPharma Inc., priority 2012, dated 2018).

Legend:
Experiment in all cases: Off-Target Kinase Profiling
Assay type in all cases: biochemical
Conditions in all cases: 10 μM; ATP near Km
CDK2/cyclinE = target: T1, CDK2/cyclinE (Homo sapiens, UniProt P24941)
T1 construct: purchased Millipore, Inc. (KinaseProfiler service)
Description: (§1) Representative compounds of the invention (Examples 33 and 10) were tested for off-target kinase activity at a concentration of 10 μM by Millipore, Inc. in their KinaseProfiler™ service against all the kinases available in their full kinase panel. Compounds were run in duplicate at a concentration of ATP near the Km for each individual kinase according to Millipore's specifications. The results are shown in Table B. Data are reported as percent of control (POC) and are the average of the two replicates.

p70S6K = target: T2, p70S6K (Homo sapiens, UniProt P23443)
T2 construct: purchased Millipore, Inc. (KinaseProfiler service)
Description: as §1

PKCzeta = target: T3, PKCzeta (Homo sapiens, UniProt Q05513)
T3 construct: purchased Millipore, Inc. (KinaseProfiler service)
Description: as §1

FGFR1 = target: T4, FGFR1 (Homo sapiens, UniProt P11362)
T4 construct: purchased Millipore, Inc. (KinaseProfiler service)
Description: as §1

SRPK1 = target: T5, SRPK1 (Homo sapiens, UniProt Q96SB4)
T5 construct: purchased Millipore, Inc. (KinaseProfiler service)
Description: as §1

GSK3beta = target: T6, GSK3beta (Homo sapiens, UniProt P49841)
T6 construct: purchased Millipore, Inc. (KinaseProfiler service)
Description: as §1

ARK5 = target: T7, ARK5 (Homo sapiens, UniProt O60285)
T7 construct: purchased Millipore (KinaseProfiler service)
Description: as §1

eEF-2K = target: T8, eEF-2K (Homo sapiens, UniProt O00418)
T8 construct: purchased Millipore, Inc. (KinaseProfiler service)
Description: as §1

MKK4_m = target: T9, MKK4_m (Mus musculus, UniProt P47809)
T9 construct: purchased Millipore, Inc. (KinaseProfiler service)
Description: as §1

ERK1 = target: T10, ERK1 (Homo sapiens, UniProt P27361)
T10 construct: purchased Millipore, Inc. (KinaseProfiler service)
Description: as §1

Met = target: T11, Met (Homo sapiens, UniProt P08581)
T11 construct: purchased Millipore, Inc. (KinaseProfiler service)
Description: as §1

PDK1 = target: T12, PDK1 (Homo sapiens, UniProt O15530)
T12 construct: purchased Millipore, Inc. (KinaseProfiler service)
Description: as §1

NEK6 = target: T13, NEK6 (Homo sapiens, UniProt Q9HC98)
T13 construct: purchased Millipore, Inc. (KinaseProfiler service)
Description: as §1

Hck = target: T14, Hck (Homo sapiens, UniProt P08631)
T14 construct: purchased Millipore, Inc. (KinaseProfiler service)
Description: as §1

ULK2 = target: T15, ULK2 (Homo sapiens, UniProt Q8IYT8)
T15 construct: purchased Millipore, Inc. (KinaseProfiler service)
Description: as §1

IRAK1 = target: T16, IRAK1 (Homo sapiens, UniProt P51617)
T16 construct: purchased Millipore, Inc. (KinaseProfiler service)
Description: as §1

Plk1 = target: T17, Plk1 (Homo sapiens, UniProt P53350)
T17 construct: purchased Millipore, Inc. (KinaseProfiler service)
Description: as §1

CHK1 = target: T18, CHK1 (Homo sapiens, UniProt O14757)
T18 construct: purchased Millipore, Inc. (KinaseProfiler service)
Description: as §1

BrSK2 = target: T19, BrSK2 (Homo sapiens, UniProt Q8IWQ3)
T19 construct: purchased Millipore (KinaseProfiler service)
Description: as §1

GRK6 = target: T20, GRK6 (Homo sapiens, UniProt P43250)
T20 construct: purchased Millipore, Inc. (KinaseProfiler service)
Description: as §1

CK1delta = target: T21, CK1delta (Homo sapiens, UniProt P48730)
T21 construct: purchased Millipore, Inc. (KinaseProfiler service)
Description: as §1

TNK2 = target: T22, TNK2 (Homo sapiens, UniProt Q07912)
T22 construct: purchased Millipore, Inc. (KinaseProfiler service)
Description: as §1

EphA5 = target: T23, EphA5 (Homo sapiens, UniProt P54756)
T23 construct: purchased Millipore, Inc. (KinaseProfiler service)
Description: as §1

CAMK2b = target: T24, CAMK2b (Homo sapiens, UniProt Q13554)
T24 construct: purchased Millipore (KinaseProfiler service)
Description: as §1

JNK3 = target: T25, JNK3 (Homo sapiens, UniProt P53779)
T25 construct: purchased Millipore, Inc. (KinaseProfiler service)
Description: as §1

CDK5/p25 = target: T26, CDK5/p25 (Homo sapiens, UniProt Q00535)
T26 construct: purchased Millipore, Inc. (KinaseProfiler service)
Description: as §1

GSK3alpha = target: T27, GSK3alpha (Homo sapiens, UniProt P49840)
T27 construct: purchased Millipore, Inc. (KinaseProfiler service)
Description: as §1

PKCbetaI = target: T28, PKCbetaI (Homo sapiens, UniProt P05771)
T28 construct: purchased Millipore, Inc. (KinaseProfiler service)
Description: as §1

STK33 = target: T29, STK33 (Homo sapiens, UniProt Q9BYT3)
T29 construct: purchased Millipore, Inc. (KinaseProfiler service)
Description: as §1

TrkA = target: T30, TrkA (Homo sapiens, UniProt P04629)
T30 construct: purchased Millipore, Inc. (KinaseProfiler service)
Description: as §1

EGFR = target: T31, EGFR (Homo sapiens, UniProt P00533)
T31 construct: purchased Millipore, Inc. (KinaseProfiler service)
Description: as §1

KDR = target: T32, KDR (Homo sapiens, UniProt P35968)
T32 construct: purchased Millipore, Inc. (KinaseProfiler service)
Description: as §1

AMPK(A1/B1/G1) = target: T33, AMPK(A1/B1/G1) (Homo sapiens, UniProt Q13131)
T33 construct: purchased Millipore (KinaseProfiler service)
Description: as §1

BLK_m = target: T34, BLK_m (Mus musculus, UniProt P16277)
T34 construct: purchased Millipore (KinaseProfiler service)
Description: as §1

ERK2 = target: T35, ERK2 (Homo sapiens, UniProt P28482)
T35 construct: purchased Millipore, Inc. (KinaseProfiler service)
Description: as §1

Tie2 = target: T36, Tie2 (Homo sapiens, UniProt Q02763)
T36 construct: purchased Millipore, Inc. (KinaseProfiler service)
Description: as §1

PASK = target: T37, PASK (Homo sapiens, UniProt Q96RG2)
T37 construct: purchased Millipore, Inc. (KinaseProfiler service)
Description: as §1

ROCK-I = target: T38, ROCK-I (Homo sapiens, UniProt Q13464)
T38 construct: purchased Millipore, Inc. (KinaseProfiler service)
Description: as §1

PAK5 = target: T39, PAK5 (Homo sapiens, UniProt Q9P286)
T39 construct: purchased Millipore, Inc. (KinaseProfiler service)
Description: as §1

Rsk3 = target: T40, Rsk3 (Homo sapiens, UniProt Q15349)
T40 construct: purchased Millipore, Inc. (KinaseProfiler service)
Description: as §1

PAK2 = target: T41, PAK2 (Homo sapiens, UniProt Q13177)
T41 construct: purchased Millipore, Inc. (KinaseProfiler service)
Description: as §1

T40 sequence (Q15349 whole entry): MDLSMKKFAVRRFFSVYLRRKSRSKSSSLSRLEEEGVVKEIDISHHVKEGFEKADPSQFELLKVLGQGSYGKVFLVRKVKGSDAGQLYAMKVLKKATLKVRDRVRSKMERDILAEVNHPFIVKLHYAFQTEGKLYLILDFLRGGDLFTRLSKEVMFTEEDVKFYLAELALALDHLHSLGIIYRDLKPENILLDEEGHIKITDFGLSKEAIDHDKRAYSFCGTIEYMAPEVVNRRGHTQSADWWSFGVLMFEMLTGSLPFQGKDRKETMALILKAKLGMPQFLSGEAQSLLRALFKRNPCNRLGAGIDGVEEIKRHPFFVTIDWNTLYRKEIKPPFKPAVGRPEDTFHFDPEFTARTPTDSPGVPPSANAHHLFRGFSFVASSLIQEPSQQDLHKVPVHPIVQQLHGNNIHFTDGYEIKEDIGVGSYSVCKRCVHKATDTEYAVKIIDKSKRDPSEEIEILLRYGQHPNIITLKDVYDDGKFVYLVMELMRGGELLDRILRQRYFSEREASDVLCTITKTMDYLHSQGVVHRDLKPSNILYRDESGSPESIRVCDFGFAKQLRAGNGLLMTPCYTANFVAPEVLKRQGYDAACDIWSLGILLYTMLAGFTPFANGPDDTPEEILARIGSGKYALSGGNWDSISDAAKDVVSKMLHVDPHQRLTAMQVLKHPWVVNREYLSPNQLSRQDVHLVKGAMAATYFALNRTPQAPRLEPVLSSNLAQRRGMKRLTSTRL
T7 sequence (O60285 whole entry): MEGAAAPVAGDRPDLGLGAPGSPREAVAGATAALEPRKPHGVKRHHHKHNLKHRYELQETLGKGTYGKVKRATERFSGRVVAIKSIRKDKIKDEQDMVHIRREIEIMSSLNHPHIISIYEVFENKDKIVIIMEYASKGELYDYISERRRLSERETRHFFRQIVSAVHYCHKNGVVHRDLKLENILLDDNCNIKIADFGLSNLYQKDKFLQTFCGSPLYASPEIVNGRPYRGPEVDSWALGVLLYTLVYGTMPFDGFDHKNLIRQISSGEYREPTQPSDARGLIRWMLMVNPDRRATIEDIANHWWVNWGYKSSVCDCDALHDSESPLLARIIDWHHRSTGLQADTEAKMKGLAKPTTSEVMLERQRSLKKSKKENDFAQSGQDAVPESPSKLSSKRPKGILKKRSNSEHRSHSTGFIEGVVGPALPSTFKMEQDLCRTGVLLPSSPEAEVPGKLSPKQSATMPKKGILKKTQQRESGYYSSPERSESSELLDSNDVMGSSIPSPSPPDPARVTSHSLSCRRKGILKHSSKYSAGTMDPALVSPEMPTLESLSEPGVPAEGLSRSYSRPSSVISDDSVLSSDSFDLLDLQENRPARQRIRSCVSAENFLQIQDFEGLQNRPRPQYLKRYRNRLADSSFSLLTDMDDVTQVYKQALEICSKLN
T27 sequence (P49840 whole entry): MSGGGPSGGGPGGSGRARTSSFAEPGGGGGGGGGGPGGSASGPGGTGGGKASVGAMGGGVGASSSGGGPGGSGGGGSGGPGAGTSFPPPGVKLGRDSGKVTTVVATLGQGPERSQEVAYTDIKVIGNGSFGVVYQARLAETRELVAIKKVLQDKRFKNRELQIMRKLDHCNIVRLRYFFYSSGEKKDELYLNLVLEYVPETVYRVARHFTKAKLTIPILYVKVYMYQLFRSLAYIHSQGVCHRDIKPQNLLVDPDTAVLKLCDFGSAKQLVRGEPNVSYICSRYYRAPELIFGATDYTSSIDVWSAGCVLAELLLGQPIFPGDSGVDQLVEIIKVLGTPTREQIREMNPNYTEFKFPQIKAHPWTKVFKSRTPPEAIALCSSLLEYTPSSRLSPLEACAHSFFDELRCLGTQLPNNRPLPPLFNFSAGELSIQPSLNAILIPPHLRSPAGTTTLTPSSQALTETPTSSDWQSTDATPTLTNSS
T12 sequence (O15530 whole entry): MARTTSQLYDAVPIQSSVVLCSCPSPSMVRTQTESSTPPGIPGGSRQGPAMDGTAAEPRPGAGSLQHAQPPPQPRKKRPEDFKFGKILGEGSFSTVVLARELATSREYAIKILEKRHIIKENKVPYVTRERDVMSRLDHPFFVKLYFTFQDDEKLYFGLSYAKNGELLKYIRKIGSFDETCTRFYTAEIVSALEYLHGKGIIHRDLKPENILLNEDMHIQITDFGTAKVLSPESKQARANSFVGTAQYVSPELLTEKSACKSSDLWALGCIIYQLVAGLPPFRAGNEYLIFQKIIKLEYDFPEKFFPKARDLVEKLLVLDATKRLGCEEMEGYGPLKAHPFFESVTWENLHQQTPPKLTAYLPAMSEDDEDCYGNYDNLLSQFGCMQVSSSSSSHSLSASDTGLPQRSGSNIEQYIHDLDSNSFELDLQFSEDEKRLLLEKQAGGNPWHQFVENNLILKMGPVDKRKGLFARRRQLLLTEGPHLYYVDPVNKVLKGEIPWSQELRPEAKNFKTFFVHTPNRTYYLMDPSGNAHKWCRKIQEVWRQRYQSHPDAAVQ
T38 sequence (Q13464 whole entry): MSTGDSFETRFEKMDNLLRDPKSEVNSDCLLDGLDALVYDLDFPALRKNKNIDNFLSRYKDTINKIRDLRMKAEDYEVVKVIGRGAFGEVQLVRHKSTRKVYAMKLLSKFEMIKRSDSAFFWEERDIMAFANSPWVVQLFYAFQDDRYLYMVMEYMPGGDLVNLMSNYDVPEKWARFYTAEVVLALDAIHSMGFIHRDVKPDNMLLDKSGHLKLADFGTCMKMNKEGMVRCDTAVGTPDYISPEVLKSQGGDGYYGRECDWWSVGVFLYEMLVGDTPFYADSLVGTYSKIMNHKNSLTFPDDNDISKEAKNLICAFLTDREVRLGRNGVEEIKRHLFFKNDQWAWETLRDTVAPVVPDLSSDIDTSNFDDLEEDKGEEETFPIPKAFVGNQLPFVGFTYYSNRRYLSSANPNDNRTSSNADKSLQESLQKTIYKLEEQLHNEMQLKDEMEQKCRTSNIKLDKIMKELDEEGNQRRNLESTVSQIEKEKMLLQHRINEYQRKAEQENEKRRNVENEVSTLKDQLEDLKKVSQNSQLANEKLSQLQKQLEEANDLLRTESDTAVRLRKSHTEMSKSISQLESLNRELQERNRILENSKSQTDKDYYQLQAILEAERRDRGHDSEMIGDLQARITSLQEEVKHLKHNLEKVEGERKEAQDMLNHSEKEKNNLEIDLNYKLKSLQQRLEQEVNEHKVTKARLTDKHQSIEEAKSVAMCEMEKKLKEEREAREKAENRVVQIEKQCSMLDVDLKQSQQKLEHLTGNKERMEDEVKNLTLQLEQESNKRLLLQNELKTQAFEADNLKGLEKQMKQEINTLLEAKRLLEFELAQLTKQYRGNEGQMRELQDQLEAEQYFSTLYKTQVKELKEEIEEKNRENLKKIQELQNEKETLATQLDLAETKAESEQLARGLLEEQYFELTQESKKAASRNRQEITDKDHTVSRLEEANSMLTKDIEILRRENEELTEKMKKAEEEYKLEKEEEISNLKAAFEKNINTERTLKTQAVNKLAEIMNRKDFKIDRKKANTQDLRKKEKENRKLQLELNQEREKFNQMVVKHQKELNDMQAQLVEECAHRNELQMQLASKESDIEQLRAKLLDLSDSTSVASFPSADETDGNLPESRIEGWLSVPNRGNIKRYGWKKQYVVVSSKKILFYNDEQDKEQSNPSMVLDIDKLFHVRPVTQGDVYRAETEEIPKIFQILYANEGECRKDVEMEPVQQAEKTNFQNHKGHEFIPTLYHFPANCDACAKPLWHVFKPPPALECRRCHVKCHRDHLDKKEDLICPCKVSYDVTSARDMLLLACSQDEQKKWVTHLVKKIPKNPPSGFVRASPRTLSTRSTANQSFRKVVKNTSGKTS
T28 sequence (P05771 whole entry): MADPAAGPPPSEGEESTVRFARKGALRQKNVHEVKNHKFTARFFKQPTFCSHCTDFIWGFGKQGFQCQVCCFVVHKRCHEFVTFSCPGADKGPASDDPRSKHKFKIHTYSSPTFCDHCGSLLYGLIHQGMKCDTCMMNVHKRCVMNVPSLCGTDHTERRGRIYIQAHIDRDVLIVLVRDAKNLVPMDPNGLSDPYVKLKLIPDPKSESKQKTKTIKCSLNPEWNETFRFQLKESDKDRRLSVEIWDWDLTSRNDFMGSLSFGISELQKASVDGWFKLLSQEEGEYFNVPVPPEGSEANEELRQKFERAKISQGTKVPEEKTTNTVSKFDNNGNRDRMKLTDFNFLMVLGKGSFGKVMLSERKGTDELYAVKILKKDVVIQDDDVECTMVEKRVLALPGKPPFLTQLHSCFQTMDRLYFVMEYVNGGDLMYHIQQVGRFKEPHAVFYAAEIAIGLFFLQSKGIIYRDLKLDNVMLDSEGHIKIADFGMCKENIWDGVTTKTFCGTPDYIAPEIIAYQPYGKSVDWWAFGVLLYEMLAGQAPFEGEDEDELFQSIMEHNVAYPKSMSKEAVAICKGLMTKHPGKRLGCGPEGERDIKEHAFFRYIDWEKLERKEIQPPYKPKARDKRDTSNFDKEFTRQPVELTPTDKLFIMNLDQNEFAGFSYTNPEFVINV
T17 sequence (P53350 whole entry): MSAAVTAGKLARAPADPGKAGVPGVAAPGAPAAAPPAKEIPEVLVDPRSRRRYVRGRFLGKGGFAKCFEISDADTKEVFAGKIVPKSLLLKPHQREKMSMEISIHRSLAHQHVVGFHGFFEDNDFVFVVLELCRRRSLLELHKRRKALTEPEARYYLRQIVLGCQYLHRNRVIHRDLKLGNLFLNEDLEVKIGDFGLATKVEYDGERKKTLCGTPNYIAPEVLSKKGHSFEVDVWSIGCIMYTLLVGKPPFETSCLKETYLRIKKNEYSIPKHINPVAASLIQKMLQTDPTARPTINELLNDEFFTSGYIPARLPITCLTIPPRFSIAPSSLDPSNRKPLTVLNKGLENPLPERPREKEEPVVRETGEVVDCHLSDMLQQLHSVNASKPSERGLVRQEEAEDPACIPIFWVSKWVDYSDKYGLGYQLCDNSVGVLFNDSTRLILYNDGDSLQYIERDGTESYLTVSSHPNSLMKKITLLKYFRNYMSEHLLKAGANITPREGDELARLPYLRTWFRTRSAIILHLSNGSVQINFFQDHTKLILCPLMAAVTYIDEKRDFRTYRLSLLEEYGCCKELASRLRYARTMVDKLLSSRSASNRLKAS

COCc1ccc(C2CCC2)c(CNC(=O)Nc2c(C)c(-c3cnc(C)nc3)nn2-c2ccccc2)c1 [Example 10, 1-(2-cyclobutyl-5-(methoxymethyl)benzyl)-3-(4-methyl-3-(2-methylpyrimidin-5-yl)-1-phenyl-1H-pyrazol-5-yl)urea]
Avg POC CDK2/cyclinE (CDK2/cyclinE): 93 POC
Avg POC p70S6K (p70S6K): 111 POC
Avg POC PKCzeta (PKCzeta): 92.5 POC
Avg POC FGFR1 (FGFR1): 68 POC
Avg POC SRPK1 (SRPK1): 116 POC
Avg POC GSK3beta (GSK3beta): 115 POC
Avg POC ARK5 (ARK5): 87 POC
Avg POC eEF-2K (eEF-2K): 109.5 POC
Avg POC MKK4_m (MKK4_m): 125.5 POC
Avg POC ERK1 (ERK1): 89.5 POC
Avg POC Met (Met): 117 POC
Avg POC PDK1 (PDK1): 120.5 POC
Avg POC NEK6 (NEK6): 92.5 POC
Avg POC Hck (Hck): 67 POC
Avg POC ULK2 (ULK2): 89 POC
Avg POC IRAK1 (IRAK1): 101 POC
Avg POC Plk1 (Plk1): 84 POC
Avg POC CHK1 (CHK1): 102.5 POC
Avg POC BrSK2 (BrSK2): 95 POC
Avg POC GRK6 (GRK6): 97.5 POC
Avg POC CK1delta (CK1delta): 85.5 POC
Avg POC TNK2 (TNK2): 114.5 POC
Avg POC EphA5 (EphA5): 114 POC
Avg POC CAMK2b (CAMK2b): 94 POC
Avg POC JNK3 (JNK3): 74 POC
Avg POC CDK5/p25 (CDK5/p25): 107.5 POC
Avg POC GSK3alpha (GSK3alpha): 105 POC
Avg POC PKCbetaI (PKCbetaI): 104.5 POC
Avg POC STK33 (STK33): 98 POC
Avg POC TrkA (TrkA): −1 POC
Avg POC EGFR (EGFR): 107.5 POC
Avg POC KDR (KDR): 97.5 POC
Avg POC AMPK(A1/B1/G1) (AMPK(A1/B1/G1)): 111.5 POC
Avg POC BLK_m (BLK_m): 97.5 POC
Avg POC ERK2 (ERK2): 104 POC
Avg POC Tie2 (Tie2): 81.5 POC
Avg POC PASK (PASK): 70 POC
Avg POC ROCK-I (ROCK-I): 114 POC
Avg POC PAK5 (PAK5): 96.5 POC
Avg POC Rsk3 (Rsk3): 101 POC
Avg POC PAK2 (PAK2): 88 POC

COCc1ccc(C(F)(F)F)c(CNC(=O)Nc2c(C)c(-c3cnn(C)c3)nn2-c2ccccc2)c1 [Example 33, 1-(1′,4-dimethyl-1-phenyl-1H,1′H-[3,4′-bipyrazol]-5-yl)-3-(5-(methoxymethyl)-2-(trifluoromethyl)benzyl)urea]
Avg POC CDK2/cyclinE (CDK2/cyclinE): 115.5 POC
Avg POC p70S6K (p70S6K): 377 POC
Avg POC PKCzeta (PKCzeta): 99 POC
Avg POC FGFR1 (FGFR1): 96 POC
Avg POC SRPK1 (SRPK1): 113.5 POC
Avg POC GSK3beta (GSK3beta): 136.5 POC
Avg POC ARK5 (ARK5): 85.5 POC
Avg POC eEF-2K (eEF-2K): 169.5 POC
Avg POC MKK4_m (MKK4_m): 137 POC
Avg POC ERK1 (ERK1): 95.5 POC
Avg POC Met (Met): 122.5 POC
Avg POC PDK1 (PDK1): 126.5 POC
Avg POC NEK6 (NEK6): 115.5 POC
Avg POC Hck (Hck): 140 POC
Avg POC ULK2 (ULK2): 98.5 POC
Avg POC IRAK1 (IRAK1): 113 POC
Avg POC Plk1 (Plk1): 93 POC
Avg POC CHK1 (CHK1): 97 POC
Avg POC BrSK2 (BrSK2): 145.5 POC
Avg POC GRK6 (GRK6): 99 POC
Avg POC CK1delta (CK1delta): 127.5 POC
Avg POC TNK2 (TNK2): 119.5 POC
Avg POC EphA5 (EphA5): 123 POC
Avg POC CAMK2b (CAMK2b): 96 POC
Avg POC JNK3 (JNK3): 135 POC
Avg POC CDK5/p25 (CDK5/p25): 100.5 POC
Avg POC GSK3alpha (GSK3alpha): 161 POC
Avg POC PKCbetaI (PKCbetaI): 111.5 POC
Avg POC STK33 (STK33): 104.5 POC
Avg POC TrkA (TrkA): −1 POC
Avg POC EGFR (EGFR): 116.5 POC
Avg POC KDR (KDR): 139.5 POC
Avg POC AMPK(A1/B1/G1) (AMPK(A1/B1/G1)): 147.5 POC
Avg POC BLK_m (BLK_m): 119 POC
Avg POC ERK2 (ERK2): 117 POC
Avg POC Tie2 (Tie2): 137.5 POC
Avg POC PASK (PASK): 205 POC
Avg POC ROCK-I (ROCK-I): 120.5 POC
Avg POC PAK5 (PAK5): 144.5 POC
Avg POC Rsk3 (Rsk3): 103 POC
Avg POC PAK2 (PAK2): 89.5 POC
